Results reported in ChEMBL document CHEMBL4507263, “Data for DCP probe BAY-474” (2021).

What was measured:
[1] = target: Adenosine receptor A1 (Homo sapiens) (UniProt P30542); conditions: Compound concentration 10.0 uM
[2] = target: Serine/threonine-protein kinase BRSK1 (Homo sapiens) (UniProt Q8TDC3); assay: BrSK1 (h) Millipore kinase activity assay; conditions: Compound concentration 1.0 uM
[3] = target: Ephrin type-A receptor 5 (Homo sapiens) (UniProt P54756); assay: EphA5 (h) Millipore kinase activity assay; conditions: Compound concentration 1.0 uM
[4] = species: Mus musculus; assay: Inhibition of Phorbol Ester at 10 µM in the Eurofins-Panlabs radioligand binding assay (Eurofins_assay_264500); parameters: ligand concentration 3 nM; conditions: Compound concentration 10.0 uM
[5] = target: D(1A) dopamine receptor (Homo sapiens) (UniProt P21728); conditions: Compound concentration 10.0 uM
[6] = target: Tyrosine-protein kinase HCK (Homo sapiens) (UniProt P08631); assay: Hck (h) Millipore kinase activity assay; conditions: Compound concentration 1.0 uM
[7] = target: Serine/threonine-protein kinase DCLK2 (Homo sapiens) (UniProt Q8N568); assay: DCAMKL2 (h) Millipore kinase activity assay; conditions: Compound concentration 1.0 uM
[8] = target: Serine/threonine-protein kinase Sgk1 (Homo sapiens) (UniProt O00141); assay: SGK (h) Millipore kinase activity assay; conditions: Compound concentration 1.0 uM
[9] = target: NUAK family SNF1-like kinase 1 (Homo sapiens) (UniProt O60285); assay: ARK5 (h) Millipore kinase activity assay; conditions: Compound concentration 1.0 uM
[10] = target: Casein kinase I isoform gamma-3 (Homo sapiens) (UniProt Q9Y6M4); assay: CK1gamma3 (h) Millipore kinase activity assay; conditions: Compound concentration 1.0 uM
[11] = target: Cyclin-dependent kinase 4 (Homo sapiens) (UniProt P11802); conditions: Compound concentration 1000.0 nM
[12] = target: Ephrin type-A receptor 7 (Homo sapiens) (UniProt Q15375); conditions: Compound concentration 1000.0 nM
[13] = target: MAP kinase-activated protein kinase 2 (Homo sapiens) (UniProt P49137); conditions: Compound concentration 1000.0 nM
MAP kinase-activated protein kinase 2 (Homo sapiens), sequence (P49137 whole entry, looked up): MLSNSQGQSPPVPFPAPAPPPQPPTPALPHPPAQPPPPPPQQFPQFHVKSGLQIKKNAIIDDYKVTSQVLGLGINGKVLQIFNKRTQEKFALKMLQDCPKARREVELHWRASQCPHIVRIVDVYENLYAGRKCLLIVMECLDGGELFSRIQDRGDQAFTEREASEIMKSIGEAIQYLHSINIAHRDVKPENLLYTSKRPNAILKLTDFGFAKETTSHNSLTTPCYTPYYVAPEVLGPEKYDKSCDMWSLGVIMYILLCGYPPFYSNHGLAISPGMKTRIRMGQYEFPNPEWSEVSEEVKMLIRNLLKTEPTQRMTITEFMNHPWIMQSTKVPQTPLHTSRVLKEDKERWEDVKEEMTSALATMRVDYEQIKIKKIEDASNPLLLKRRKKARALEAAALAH

[14] = target: Aurora kinase B (Homo sapiens) (UniProt Q96GD4); conditions: Compound concentration 1000.0 nM
[15] = target: Cyclin-dependent kinase 13 (Homo sapiens) (UniProt Q14004); conditions: Compound concentration 1000.0 nM
[16] = target: Serine/threonine-protein kinase 33 (Homo sapiens) (UniProt Q9BYT3); conditions: Compound concentration 1000.0 nM
Serine/threonine-protein kinase 33 (Homo sapiens), sequence (Q9BYT3 whole entry, looked up): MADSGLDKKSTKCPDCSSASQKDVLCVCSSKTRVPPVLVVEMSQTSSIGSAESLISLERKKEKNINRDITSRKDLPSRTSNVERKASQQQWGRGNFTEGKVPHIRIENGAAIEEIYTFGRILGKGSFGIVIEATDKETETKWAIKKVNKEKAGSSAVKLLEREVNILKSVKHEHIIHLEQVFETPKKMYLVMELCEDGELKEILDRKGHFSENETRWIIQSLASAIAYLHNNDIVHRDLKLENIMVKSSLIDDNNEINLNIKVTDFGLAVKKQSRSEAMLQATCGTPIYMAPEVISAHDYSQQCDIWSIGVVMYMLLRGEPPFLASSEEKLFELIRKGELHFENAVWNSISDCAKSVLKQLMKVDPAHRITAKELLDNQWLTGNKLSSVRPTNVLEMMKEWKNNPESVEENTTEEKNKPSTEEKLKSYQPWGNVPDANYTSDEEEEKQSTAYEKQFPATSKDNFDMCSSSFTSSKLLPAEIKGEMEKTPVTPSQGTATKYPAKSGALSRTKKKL

[17] = system: Receptor-type tyrosine-protein kinase FLT3 (Homo sapiens), P36888 [UNDEFINED MUTATION]; conditions: Compound concentration 1000.0 nM
[18] = target: Ephrin type-A receptor 8 (Homo sapiens) (UniProt P29322); conditions: Compound concentration 1000.0 nM
[19] = target: Platelet-derived growth factor receptor alpha (Homo sapiens) (UniProt P16234); conditions: Compound concentration 1000.0 nM
[20] = target: TGF-beta receptor type-2 (Homo sapiens) (UniProt P37173); conditions: Compound concentration 1000.0 nM
[21] = target: Peripheral plasma membrane protein CASK (Homo sapiens) (UniProt O14936); conditions: Compound concentration 1000.0 nM
[22] = target: cGMP-dependent protein kinase 2 (Homo sapiens) (UniProt Q13237); conditions: Compound concentration 1000.0 nM
[23] = target: Serine/threonine-protein kinase 32C (Homo sapiens) (UniProt Q86UX6); conditions: Compound concentration 1000.0 nM
Serine/threonine-protein kinase 32C (Homo sapiens), sequence (Q86UX6 whole entry): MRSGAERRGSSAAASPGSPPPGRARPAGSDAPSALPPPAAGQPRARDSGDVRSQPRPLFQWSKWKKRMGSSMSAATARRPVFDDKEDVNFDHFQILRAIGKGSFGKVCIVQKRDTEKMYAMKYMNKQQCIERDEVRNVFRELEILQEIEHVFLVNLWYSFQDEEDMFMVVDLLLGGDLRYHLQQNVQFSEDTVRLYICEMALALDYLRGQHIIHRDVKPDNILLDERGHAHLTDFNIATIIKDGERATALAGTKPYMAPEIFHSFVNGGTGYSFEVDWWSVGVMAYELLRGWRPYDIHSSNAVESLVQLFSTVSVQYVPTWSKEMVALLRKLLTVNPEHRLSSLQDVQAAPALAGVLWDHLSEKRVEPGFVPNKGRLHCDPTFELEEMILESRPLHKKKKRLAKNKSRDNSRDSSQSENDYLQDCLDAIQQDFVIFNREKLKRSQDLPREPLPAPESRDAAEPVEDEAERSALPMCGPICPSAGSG

[24] = target: T1, cGMP-dependent protein kinase 1 (Homo sapiens) (UniProt Q13976); conditions: Compound concentration 1000.0 nM
T1 sequence (whole entry): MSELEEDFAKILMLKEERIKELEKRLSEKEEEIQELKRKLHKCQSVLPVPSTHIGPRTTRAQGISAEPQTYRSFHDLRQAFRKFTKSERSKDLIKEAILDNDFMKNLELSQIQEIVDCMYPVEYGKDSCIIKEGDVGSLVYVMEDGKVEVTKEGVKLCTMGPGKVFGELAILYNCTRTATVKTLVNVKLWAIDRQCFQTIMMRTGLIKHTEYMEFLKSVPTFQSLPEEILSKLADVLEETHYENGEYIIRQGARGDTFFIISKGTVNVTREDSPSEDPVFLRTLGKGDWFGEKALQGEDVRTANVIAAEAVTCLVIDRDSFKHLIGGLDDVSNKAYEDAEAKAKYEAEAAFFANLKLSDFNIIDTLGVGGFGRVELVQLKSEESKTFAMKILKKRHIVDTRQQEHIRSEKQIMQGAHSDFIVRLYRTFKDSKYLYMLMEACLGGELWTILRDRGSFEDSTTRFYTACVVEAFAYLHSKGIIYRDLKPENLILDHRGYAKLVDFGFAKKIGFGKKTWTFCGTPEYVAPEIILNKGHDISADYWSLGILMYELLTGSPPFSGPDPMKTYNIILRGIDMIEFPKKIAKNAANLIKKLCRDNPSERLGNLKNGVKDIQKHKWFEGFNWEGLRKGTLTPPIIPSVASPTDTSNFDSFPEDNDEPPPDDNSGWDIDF

[25] = target: Casein kinase I isoform delta (Homo sapiens) (UniProt P48730); conditions: Compound concentration 1000.0 nM
[26] = target: Cyclin-dependent kinase 7 (Homo sapiens) (UniProt P50613); conditions: Compound concentration 1000.0 nM
[27] = system: Phosphatidylinositol 4,5-bisphosphate 3-kinase catalytic subunit alpha isoform (Homo sapiens), P42336 [Q546K]; conditions: Compound concentration 1000.0 nM
[28] = target: Serine/threonine-protein kinase Nek7 (Homo sapiens) (UniProt Q8TDX7); conditions: Compound concentration 1000.0 nM
Serine/threonine-protein kinase Nek7 (Homo sapiens), sequence (Q8TDX7 whole entry, looked up): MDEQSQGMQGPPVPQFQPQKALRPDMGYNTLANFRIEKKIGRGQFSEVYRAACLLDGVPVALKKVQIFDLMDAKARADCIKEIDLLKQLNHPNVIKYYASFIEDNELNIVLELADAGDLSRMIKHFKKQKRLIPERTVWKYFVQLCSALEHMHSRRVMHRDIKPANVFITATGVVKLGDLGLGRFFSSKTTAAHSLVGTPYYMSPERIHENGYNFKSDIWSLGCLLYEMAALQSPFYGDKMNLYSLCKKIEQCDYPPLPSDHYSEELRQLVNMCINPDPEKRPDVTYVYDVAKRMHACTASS

[29] = target: Ephrin type-B receptor 1 (Homo sapiens) (UniProt P54762); conditions: Compound concentration 1000.0 nM
[30] = target: Serine/threonine-protein kinase TNNI3K (Homo sapiens) (UniProt Q59H18); conditions: Compound concentration 1000.0 nM
Serine/threonine-protein kinase TNNI3K (Homo sapiens), sequence (Q59H18 whole entry): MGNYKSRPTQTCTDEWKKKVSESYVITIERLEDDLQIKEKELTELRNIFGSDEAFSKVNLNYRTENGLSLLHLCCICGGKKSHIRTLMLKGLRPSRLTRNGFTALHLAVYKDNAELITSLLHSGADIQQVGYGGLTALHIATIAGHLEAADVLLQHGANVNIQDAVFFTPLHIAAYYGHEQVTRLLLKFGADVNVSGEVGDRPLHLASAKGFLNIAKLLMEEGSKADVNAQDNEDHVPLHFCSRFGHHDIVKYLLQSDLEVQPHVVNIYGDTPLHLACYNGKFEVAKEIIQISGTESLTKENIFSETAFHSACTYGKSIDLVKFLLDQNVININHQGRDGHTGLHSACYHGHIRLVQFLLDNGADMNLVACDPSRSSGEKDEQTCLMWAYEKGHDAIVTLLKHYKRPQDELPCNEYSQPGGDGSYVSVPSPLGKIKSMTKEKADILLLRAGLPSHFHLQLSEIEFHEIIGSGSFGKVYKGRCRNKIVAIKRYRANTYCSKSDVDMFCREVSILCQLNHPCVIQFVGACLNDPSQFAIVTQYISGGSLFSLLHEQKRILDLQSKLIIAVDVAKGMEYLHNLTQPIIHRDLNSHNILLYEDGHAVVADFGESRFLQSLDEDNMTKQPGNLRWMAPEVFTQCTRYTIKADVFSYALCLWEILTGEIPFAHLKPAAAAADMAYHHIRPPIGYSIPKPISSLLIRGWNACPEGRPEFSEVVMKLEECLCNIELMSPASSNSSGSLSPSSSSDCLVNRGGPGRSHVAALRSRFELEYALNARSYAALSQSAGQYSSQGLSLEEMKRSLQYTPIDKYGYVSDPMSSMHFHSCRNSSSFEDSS

[31] = system: Epidermal growth factor receptor (Homo sapiens), P00533 [UNDEFINED MUTATION]; conditions: Compound concentration 1000.0 nM
[32] = system: Tyrosine-protein kinase ABL1 (Homo sapiens), P00519 [M351T]; conditions: Compound concentration 1000.0 nM
[33] = system: Tyrosine-protein kinase ABL1 (Homo sapiens), P00519 [F317L]; conditions: Compound concentration 1000.0 nM
[34] = target: cAMP-dependent protein kinase catalytic subunit alpha (Homo sapiens) (UniProt P17612); conditions: Compound concentration 1000.0 nM
[35] = target: Serine/threonine-protein kinase DCLK3 (Homo sapiens) (UniProt Q9C098); conditions: Compound concentration 1000.0 nM
Serine/threonine-protein kinase DCLK3 (Homo sapiens), sequence (Q9C098 whole entry): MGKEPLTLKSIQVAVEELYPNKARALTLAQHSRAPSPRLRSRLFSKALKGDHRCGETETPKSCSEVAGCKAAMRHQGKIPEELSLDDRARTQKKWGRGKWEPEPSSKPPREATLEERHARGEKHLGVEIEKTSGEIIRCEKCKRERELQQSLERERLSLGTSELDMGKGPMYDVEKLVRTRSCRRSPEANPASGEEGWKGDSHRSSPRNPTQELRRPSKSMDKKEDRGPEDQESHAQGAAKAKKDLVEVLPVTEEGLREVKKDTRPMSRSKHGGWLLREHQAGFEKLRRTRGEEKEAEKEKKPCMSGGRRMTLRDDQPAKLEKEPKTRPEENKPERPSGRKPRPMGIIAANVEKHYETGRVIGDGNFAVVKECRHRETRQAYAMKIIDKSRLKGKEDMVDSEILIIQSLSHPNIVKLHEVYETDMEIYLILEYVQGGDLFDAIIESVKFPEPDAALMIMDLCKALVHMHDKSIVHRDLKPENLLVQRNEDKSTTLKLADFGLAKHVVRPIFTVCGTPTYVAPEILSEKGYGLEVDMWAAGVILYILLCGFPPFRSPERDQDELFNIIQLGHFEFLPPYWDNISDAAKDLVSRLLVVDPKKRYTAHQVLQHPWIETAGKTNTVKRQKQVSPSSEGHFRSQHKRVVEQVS

[36] = target: Receptor tyrosine-protein kinase erbB-3 (Homo sapiens) (UniProt P21860); conditions: Compound concentration 1000.0 nM
Receptor tyrosine-protein kinase erbB-3 (Homo sapiens), sequence (P21860 whole entry): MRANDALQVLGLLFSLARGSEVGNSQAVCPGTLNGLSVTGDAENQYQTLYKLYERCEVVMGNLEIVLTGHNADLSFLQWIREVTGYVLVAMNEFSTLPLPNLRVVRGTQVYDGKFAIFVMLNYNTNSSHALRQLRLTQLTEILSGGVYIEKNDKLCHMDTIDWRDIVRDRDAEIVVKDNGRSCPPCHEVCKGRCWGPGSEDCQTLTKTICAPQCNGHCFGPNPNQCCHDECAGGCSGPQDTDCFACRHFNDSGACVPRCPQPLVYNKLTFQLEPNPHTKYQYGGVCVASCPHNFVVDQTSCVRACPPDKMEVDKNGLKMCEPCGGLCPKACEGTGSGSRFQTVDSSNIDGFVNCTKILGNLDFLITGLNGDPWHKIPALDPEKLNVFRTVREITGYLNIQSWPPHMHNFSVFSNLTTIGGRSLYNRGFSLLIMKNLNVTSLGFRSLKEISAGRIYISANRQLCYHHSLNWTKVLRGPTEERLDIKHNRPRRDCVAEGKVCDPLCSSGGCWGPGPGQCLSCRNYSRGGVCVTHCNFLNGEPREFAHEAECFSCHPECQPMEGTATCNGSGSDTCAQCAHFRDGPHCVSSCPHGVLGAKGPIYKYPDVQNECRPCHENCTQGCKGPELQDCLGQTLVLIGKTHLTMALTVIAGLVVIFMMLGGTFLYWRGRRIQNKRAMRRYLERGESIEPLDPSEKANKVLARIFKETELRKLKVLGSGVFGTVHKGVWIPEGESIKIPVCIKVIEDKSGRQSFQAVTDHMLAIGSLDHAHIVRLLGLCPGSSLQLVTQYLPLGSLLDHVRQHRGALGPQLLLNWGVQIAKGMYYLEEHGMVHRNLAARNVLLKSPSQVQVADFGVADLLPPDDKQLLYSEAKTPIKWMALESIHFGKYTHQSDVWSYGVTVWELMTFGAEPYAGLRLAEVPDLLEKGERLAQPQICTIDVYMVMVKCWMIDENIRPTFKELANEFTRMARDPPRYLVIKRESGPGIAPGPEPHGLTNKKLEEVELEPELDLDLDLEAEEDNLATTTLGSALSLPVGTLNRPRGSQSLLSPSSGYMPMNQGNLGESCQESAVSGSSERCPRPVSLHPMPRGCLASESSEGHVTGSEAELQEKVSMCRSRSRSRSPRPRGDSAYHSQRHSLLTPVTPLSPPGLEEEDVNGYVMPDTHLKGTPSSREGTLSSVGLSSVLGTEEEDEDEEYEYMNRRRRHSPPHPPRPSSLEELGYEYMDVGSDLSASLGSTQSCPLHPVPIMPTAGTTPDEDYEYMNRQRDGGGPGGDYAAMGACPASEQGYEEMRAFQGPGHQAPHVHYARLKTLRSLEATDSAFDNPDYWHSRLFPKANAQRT

Adenosine receptor A1 (Homo sapiens), sequence (P30542 whole entry): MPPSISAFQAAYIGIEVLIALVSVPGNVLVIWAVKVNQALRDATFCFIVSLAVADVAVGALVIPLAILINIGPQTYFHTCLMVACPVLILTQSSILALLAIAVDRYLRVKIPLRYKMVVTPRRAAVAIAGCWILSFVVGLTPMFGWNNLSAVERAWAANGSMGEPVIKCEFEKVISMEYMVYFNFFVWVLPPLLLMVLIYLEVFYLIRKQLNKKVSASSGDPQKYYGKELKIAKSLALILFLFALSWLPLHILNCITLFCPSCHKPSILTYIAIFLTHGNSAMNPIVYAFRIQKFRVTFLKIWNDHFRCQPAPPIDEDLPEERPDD

CC1=C(C#N)C(c2ccc3[nH]nc(C)c3c2)C(C#N)=C(C)N1 [BAY-474]
inactive: inhibition [1] -2% | inhibition [2] 9% | inhibition [3] -1% | inhibition [4] 4% | inhibition [5] 3% | inhibition [6] 16% | inhibition [7] -5% | inhibition [8] -2% | inhibition [9] 22% | inhibition [10] 21%

CC1=C(C#N)[C@@H](c2ccc3[nH]nc(C)c3c2)C(C#N)=C(c2ccc(Cl)cc2)N1 [BAY-827]
inactive: residual activity [11] 78.8% | residual activity [12] 91.2% | residual activity [13] 100% | residual activity [14] 82.9% | residual activity [15] 86.6% | residual activity [16] 90.9% | residual activity [17] 100% | residual activity [18] 100% | residual activity [19] 100% | residual activity [20] 74.6% | residual activity [21] 66.2% | residual activity [22] 100% | residual activity [23] 91.2% | residual activity [24] 86.9% | residual activity [25] 100% | residual activity [26] 100% | residual activity [27] 93.7% | residual activity [28] 87.4% | residual activity [29] 100% | residual activity [30] 94.3% | residual activity [31] 100% | residual activity [32] 94.6% | residual activity [33] 100% | residual activity [34] 96.7% | residual activity [35] 71.3% | residual activity [36] 63.9%
